# Molecular target: GABAC receptor ρ1 subunit (Homo sapiens, UniProt P24046)
# Assay: two-electrode voltage clamp in Xenopus oocytes expressing human ρ[…]
# Format: cell-based
# Sequence of GABAC receptor ρ1 subunit (P24046 22-479): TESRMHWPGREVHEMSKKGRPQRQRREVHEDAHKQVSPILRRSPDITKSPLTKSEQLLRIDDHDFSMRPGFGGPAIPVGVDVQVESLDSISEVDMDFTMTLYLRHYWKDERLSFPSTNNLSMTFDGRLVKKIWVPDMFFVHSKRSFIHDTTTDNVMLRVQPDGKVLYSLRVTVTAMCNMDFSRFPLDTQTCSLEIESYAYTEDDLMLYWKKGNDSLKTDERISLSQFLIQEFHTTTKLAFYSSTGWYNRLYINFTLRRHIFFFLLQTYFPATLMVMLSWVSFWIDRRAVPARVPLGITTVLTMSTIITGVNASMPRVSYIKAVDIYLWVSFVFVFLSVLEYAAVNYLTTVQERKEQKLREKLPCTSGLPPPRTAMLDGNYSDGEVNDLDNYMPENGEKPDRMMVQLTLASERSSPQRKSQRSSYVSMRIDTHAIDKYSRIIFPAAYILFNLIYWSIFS
smiles,measurement,value
"CC(C)=CCC[C@](C)(O)[C@H]1CC[C@]2(C)[C@@H]1[C@H](O)C[C@@H]1[C@@]3(C)CC[C@H](O)C(C)(C)[C@@H]3[C@@H](O)C[C@]12C [M4, protopanaxatriol]",IC50,45.7 ± 3.9 µM

# — article PMC3634089 (The Korean Journal of Physiology & Pharmacology : …, 2013)
